In PubChem BioAssay (NCI) one finds GI50 and TGI data, which are given here for 41 compounds.

“And” between values parts separate entries of the source, which are not always exact repeats. Identical values can stand only once.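 Each compound was tested at five concentrations against cells in 96-well plates for 48 hours. The concentration for 50% growth inhibition is given as GI50. TGI denotes the concentration required for complete inhibition of growth.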

This experiment deals with MDA-MB-468 breast. The experiment is described as follows: DTP human tumour cell line panel, 48 h.
By GI50 is commonly meant the concentration at which growth is held to half of that of the control. By TGI is commonly meant the concentration at which net growth stops. Higher therefore signals lower sensitivity of the cells. On to `CSc1nc(N)c2c(n1)NC(c1ccccc1)C1CCc3ccccc3C1=N2` (configuration not stated), for which the GI50 was 84400 nM and the concentration for total growth inhibition (TGI) is more than 100000 nM.

With `Cc1ncc(-c2ccnc(Nc3ccc(S(C)(=O)=O)cc3)n2)n1C(C)C`, the GI50 was 1120 nM and the TGI is 2930 nM.

As to `O=C(COc1ccc(-c2nc3cc(Cl)c(Cl)cc3[nH]2)cc1)N=Nc1c(O)[nH]c2ccccc12`, the GI50 was 2600 nM and the TGI amounted to 6230 nM.

On to `Cn1c2ccccc2c2nnc(NNCc3ccccn3)nc21`, for which the GI50 is 268 nM and the TGI amounted to 1160 nM.

Regarding `O=C(Nc1cccc(-n2cc(-c3ccncc3)c(-c3ccc(O)c(Cl)c3)n2)c1)c1ccc(Cl)c(Cl)c1`, the GI50 is 16200 nM and the TGI is more than 100000 nM.

`C[C@]12CC[C@@H]3c4ccc(O)cc4CC[C@H]3[C@@H]1CC[C@@H]2NS(=O)(=O)c1ccc2ccccc2c1`: the GI50 is 3620 nM and the TGI was determined as 15200 nM.

For `COc1cc(C2C3=C(COC3=O)Nc3cc4c(cc32)OCO4)cc2c1OCO2` (configuration not stated), the concentration for 50% growth inhibition (GI50) is 55.9 nM and the TGI came to 242 nM.

As for `COc1ccc2[nH]c(O)c(/C=c3/ccc4c(c3)N=C(c3ccc(F)cc3)N=4)c2c1`, the GI50 was 4140 nM and the TGI is 22300 nM.

For the compound `CCN(Cc1cccc(F)c1F)c1ccc(CO)c(Cl)c1`, the GI50 is less than 12.5 nM and the total growth inhibition concentration (TGI) was 35 nM.

On to `CNC(=O)c1cc2c(Oc3ccc(NC(=S)NC(=O)Cc4ccccc4)cc3F)ccnc2cc1OC`, for which the GI50 is more than 29900 nM and the TGI is more than 100000 nM.

`COc1ccc(Oc2cc(NCCC(F)(F)F)c3ncc(-c4ccc(C(=O)NC5CC5)c(C)c4)n3n2)c(F)c1F`: the GI50 is 3650 nM and the TGI is more than 100000 nM.

As to `CC(=O)/C(=C\c1c(-c2ccccc2)[nH]c2ccccc12)S(=O)(=O)c1ccccc1`, the GI50 was 987 nM and the TGI was 14800 nM.

`Brc1ccc2[nH]cc(-c3nn4cc(-c5nccs5)nc4s3)c2c1`: the GI50 was 3260 nM and the total growth inhibition concentration (TGI) is 18300 nM.

On to `CC(=O)c1ccc2c(c1)N(CCCN(C)C)c1ccccc1S2`, for which the GI50 was 10400 nM and the concentration for total growth inhibition (TGI) came to 22800 nM.

With `COc1ccc(/C=N\NC(=O)c2ccc3nc(-c4ccc(Br)cc4)[nH]c3c2)cc1`, the GI50 is 2750 nM and the total growth inhibition concentration (TGI) stood at 5970 nM.

Regarding `Oc1c(CNCCNCc2cc(Cl)cc(Cc3ccccc3)c2O)cc(Cl)cc1Cc1ccccc1`, the GI50 is 307 nM and the TGI is 4430 nM.

For the compound `CC1(C)CC(=O)c2c(ccc(C(=O)C[C@@H](N)CO)c2N)O1`, the GI50 is 561 nM and the total growth inhibition concentration (TGI) turned out to be 6880 nM.

For the compound `COc1ccc(-c2nc(-c3nc4ccc(C(F)(F)F)cc4[nH]3)c3ccccn23)cc1`, the GI50 was 13400 nM and the total growth inhibition concentration (TGI) is more than 100000 nM.

As to `Cc1cc(O)cc(C)c1/C=C/c1cncc(C(=O)OC(C)(C)C)c1`, the GI50 is 8410 nM and the concentration for total growth inhibition (TGI) is more than 25000 nM.

For the compound `Clc1ccc(N2CCC(N3CCCC3)CC2)cc1-c1nc2ccccc2[nH]1`, the GI50 was 12100 nM and the concentration for total growth inhibition (TGI) was determined as 26300 nM.

For the compound `COC(=O)[C@@H](OC)[C@@H]1Cc2cc3cc(OC4CC(OC5CC(O)C(O)C(C)O5)C(O)C(C)O4)c(C)c(O)c3c(O)c2C(=O)[C@H]1OC1CC(OC2CC(OC3CC(C)(O)C(O)C(C)O3)C(O)C(C)O2)C(O)C(C)O1` (some centres not stated), the GI50 was 28.3 nM and the concentration for total growth inhibition (TGI) worked out at 71.3 nM.

As to `COc1cc(NC(C)CCCN)c2ncccc2c1Sc1ccc(Cl)cc1` (configuration not stated), the GI50 is 1700 nM and the total growth inhibition concentration (TGI) was 3110 nM.

As for `CCCCCSC1C2C(=O)C(Br)=CC13CCNc1c(O)c4c5c(c13)=[N+]2CCC=5C=N4` (configuration not stated), the concentration for 50% growth inhibition (GI50) was 390 nM and the total growth inhibition concentration (TGI) was 1090 nM.

Turning to `COc1ccc(/C(=N/O)c2cc(OC)c(OC)c(OC)c2)c(OC)c1N`, the GI50 was 3540 nM and the TGI was more than 100000 nM.

For `N=C(N)SCc1ccc([N+](=O)[O-])cc1[N+](=O)[O-]`, the GI50 is 2520 nM and the TGI stood at 8550 nM.

For the compound `FC(F)(F)c1[nH]ncc1-c1nc2ccc3[nH]ncc3c2c2c1CCCC2`, the GI50 is 1860 nM and the TGI came to 4670 nM.

Consider `CN(C)CCOc1ccc(-c2cc(-c3ccc4c(c3)CC/C4=N\O)c(-c3ccncc3)o2)cc1`, for which the GI50 was 2800 nM and the TGI was 6170 nM.

As for `CN1CCN(c2ccc(C(=O)Nc3cccc(C#Cc4cccc5[nH]nc(N)c45)c3)cc2C(F)(F)F)CC1`, the GI50 was 821 nM and the TGI was determined as 2390 nM.

For the compound `COC(=O)/C(=C\c1c(-c2ccccc2)[nH]c2ccccc12)S(C)(=O)=O`, the GI50 is 5400 nM and the TGI worked out at 84800 nM.

Regarding `CN(C)c1ccc(/C=N/NC(=O)c2cccc3ccccc23)c(Cl)c1`, the 50% growth inhibitory concentration (GI50) is 311 nM and the total growth inhibition concentration (TGI) was found to be 2570 nM.

Turning to `CN(C)c1ccc(C(=C2C=CC(=[N+](C)C)C=C2)c2ccccc2Cl)cc1`, the GI50 was 220 nM and the TGI came out at 655 nM.

For the compound `COc1ccc(C(=O)OC2C(OC3C(O)COC(O[C@H]4C[C@H]5[C@@H]6CC=C7C[C@@H](O)CC[C@]7(C)[C@H]6CC[C@]5(C)[C@H]4[C@H](C)C(=O)CCC(C)C)C3OC(C)=O)OCC(O)C2O)cc1` (some centres not stated), the concentration for 50% growth inhibition (GI50) is 6.66 nM and the TGI amounted to 1530 nM.

With `CCN1C(=O)N(CC)C2C1NN=c1s/c(=C\c3cccc([N+](=O)[O-])c3)c(=O)n12` (configuration not stated), the concentration for 50% growth inhibition (GI50) is 375 nM and the TGI was more than 100000 nM.

In the case of `O=C(c1ccccc1O)c1[nH]c(Cl)c(Cl)c1-n1c(C(=O)c2ccccc2O)cc(Cl)c1Cl`, the GI50 was 436 nM and 339 nM; the concentration for total growth inhibition (TGI) was 6530 nM and 10400 nM.

Regarding `Cc1cc2c(cc1C)[n+](Cc1ccc3ccccc3n1)cn2Cc1ccc2ccccc2n1`, the GI50 is 444 nM and the total growth inhibition concentration (TGI) worked out at 1950 nM.

Regarding `Oc1ccccc1C=Nc1ccccc1N=Cc1ccccc1O.[Cu+2]`, the GI50 was 1730 nM and the TGI worked out at 13500 nM.

As to `CC/C=C\C[C@H](O)C/C=C1/C(=O)C=C[C@@H]1C/C=C\CCCC(=O)NC`, the GI50 was 940 nM and the TGI was 2510 nM.

In the case of `CC1(C)N=C(N)N=C(N)N1c1ccc(Cl)c(Cl)c1`, the GI50 was 337 nM and the TGI was more than 57500 nM.

As to `CNCCCn1c2c(c3ccc(F)cc3c1=O)C(=O)c1cc(OC)cnc1-2`, the concentration for 50% growth inhibition (GI50) is 220 nM and the concentration for total growth inhibition (TGI) was determined as 660 nM.

As for `O=Nc1c(O)c2ccccc2c2ccccc12`, the GI50 is 1810 nM and the concentration for total growth inhibition (TGI) worked out at 3730 nM.

Take `COc1ccc2nccc(/C=C/c3ccnc4ccc(OC)cc34)c2c1`: the GI50 was more than 100000 nM and the TGI is more than 100000 nM.
